Test results from paper PMC4965013, “Open Source Drug Discovery with the Malaria Box Compound Collection for Neglected Diseases and Beyond” (PLoS Pathogens, 2016).
Where two headings read alike, the source gives them in different places.

What was measured:
[1] = test system: P. falciparum 3D7; test: [3H]-hypoxanthine growth inhibition, modified HCO3- or O2; format: cell-based; details: for IC50: Plasmodium falciparum
[2] = test system: P. falciparum 3D7 trophozoites; test: Metabolomic fingerprint profiling LC-MS; format: cell-based, Plasmodium falciparum; design: UDP-D-glucose / ADP-D-glucose: unit not given here; details: for Acetyllysine / N-acetyl-L-ornithine / N-carbamoyl-L-aspartate / NADPH / dAMP / dCMP / dTDP / dTMP / dTTP / dihydroorotate / orotate / DLH / DLS/SDL/SID / PD / PEE / PVNF / 3-phosphoglycerate / ADP-D-glucose / ATP / CDP / D-sedoheptulose-1/7-phosphate / FAD / GMP / NAD+ / NADP+ / Octoluse Bisphosphate / Pyroglutamic acid / UDP-D-glucose / UDP-D-glucuronate / UDP-N-acetyl-glucosamine / UDP / UMP / UTP / a-ketoglutarate / citrate/isocitrate / cytidine / dATP / dGMP/AMP / fumarate / glucose-1/6-phosphate / glycerate / guanine / guanosine / hypoxanthine / indole / inosine / nicotinate / ornithine / phosphoenolpyruvate / pyruvate / ribose-phosphate / sarcosine/alanine / sn-glycerol-3-phosphate / succinate/methylmalonic acid / uridine / xanthosine: S2 Table Metabolomics; for Acetyllysine: metabolite Acetyllysine; for N-acetyl-L-ornithine: metabolite N-acetyl-L-ornithine; for N-carbamoyl-L-aspartate: metabolite N-carbamoyl-L-aspartate; for NADPH: metabolite NADPH; for dAMP: metabolite dAMP; for dCMP: metabolite dCMP; for dTDP: metabolite dTDP; for dTMP: metabolite dTMP; for dTTP: metabolite dTTP; for dihydroorotate: metabolite dihydroorotate; for orotate: metabolite orotate; for DLH: peptide DLH; for DLS/SDL/SID: peptide DLS/SDL/SID; for PD: peptide PD; for PEE: peptide PEE; for PVNF: peptide PVNF; for 3-phosphoglycerate: metabolite 3-phosphoglycerate; for ADP-D-glucose: metabolite ADP-D-glucose; for ATP: metabolite ATP; for CDP: metabolite CDP; for CDP / D-sedoheptulose-1/7-phosphate / GMP / Octoluse Bisphosphate / UDP / UMP / UTP / citrate/isocitrate / dGMP/AMP / fumarate / glucose-1/6-phosphate / glycerate / guanine / guanosine / inosine / pyruvate / sarcosine/alanine / succinate/methylmalonic acid / uridine / xanthosine: change in metabolite level after compound treatment; for D-sedoheptulose-1/7-phosphate: metabolite D-sedoheptulose-1/7-phosphate; for FAD: metabolite FAD; for GMP: metabolite GMP; for NAD+: metabolite NAD+; for NADP+: metabolite NADP+; for Octoluse Bisphosphate: metabolite Octoluse Bisphosphate; for Pyroglutamic acid: metabolite Pyroglutamic acid; for UDP-D-glucose: metabolite UDP-D-glucose; for UDP-D-glucuronate: metabolite UDP-D-glucuronate; for UDP-N-acetyl-glucosamine: metabolite UDP-N-acetyl-glucosamine; for UDP: metabolite UDP; for UMP: metabolite UMP; for UTP: metabolite UTP; for a-ketoglutarate: metabolite a-ketoglutarate; for citrate/isocitrate: metabolite citrate/isocitrate; for cytidine: metabolite cytidine; for dATP: metabolite dATP; for dGMP/AMP: metabolite dGMP/AMP; for fumarate: metabolite fumarate; for glucose-1/6-phosphate: metabolite glucose-1/6-phosphate; for glycerate: metabolite glycerate; for guanine: metabolite guanine; for guanosine: metabolite guanosine; for hypoxanthine: metabolite hypoxanthine; for indole: metabolite indole; for inosine: metabolite inosine; for 2_3-Diphosphoglyceric acid / 4-phosphopantothenate / 6-phospho-D-gluconate / FMN / IMP / Pyrophosphate / Sedoheptoluse bisphosphate / cyclic-AMP / glutathione disulfide / lactate / myo-inositol: metabolite level change after treatment; for nicotinate: metabolite nicotinate; for ornithine: metabolite ornithine; for phosphoenolpyruvate: metabolite phosphoenolpyruvate; for pyruvate: metabolite pyruvate; for ribose-phosphate: metabolite ribose-phosphate; for sarcosine/alanine: metabolite sarcosine/alanine; for sn-glycerol-3-phosphate: metabolite sn-glycerol-3-phosphate; for succinate/methylmalonic acid: metabolite succinate/methylmalonic acid; for uridine: metabolite uridine; for xanthosine: metabolite xanthosine
[3] = test system: P. falciparum; test: EC50 listed in S2 Table Metabolomics (used to set the concentration tested); format: cell-based; details: Plasmodium falciparum; EC50 used for Factor_XEC50 in metabolomics; read-out: EC50_nM
[4] = 3D7, read-out: P. falciparum 3D7 IC50 1% O2, 1% O2 hypoxia
[5] = 3D7, read-out: P. falciparum 3D7 IC50 5% O2
[6] = 3D7, read-out: P. falciparum 3D7 IC50 HCO3- (2g/L), standard media
[7] = 3D7, HCO3- reduced media, read-out: P. falciparum 3D7 IC50 HCO3- reduced

CN(C)CCCNc1c2ccccc2nc2ccccc12 [MMV000448]
fold change (IC50normal/ IC50hypoxia) [1]: 6.1
fold change (IC50reduced/IC50normal) [1]: 3.1
IC50 [1, 4]: 59 nM
IC50 [1, 5]: 360 nM
IC50 [1, 6]: 190 nM
IC50 [1, 7]: 594 nM
Acetyllysine [2]: -0.6096
N-acetyl-L-ornithine [2]: -0.1966
N-carbamoyl-L-aspartate [2]: -0.218
NADPH [2]: 1.387
dAMP [2]: -0.07728
dCMP [2]: 0.0599
dTDP [2]: -0.2724
dTMP [2]: -0.1401
dTTP [2]: 0.115
dihydroorotate [2]: -0.03007
orotate [2]: -0.5122
DLH [2]: -0.2186
DLS/SDL/SID [2]: 0.06919
PD [2]: 0.358
PEE [2]: 0.9721
PVNF [2]: 0.2725
3-phosphoglycerate [2]: -0.1099
ADP-D-glucose [2]: 0.3085
ATP [2]: -0.1913
CDP [2]: 0.02837
D-sedoheptulose-1/7-phosphate [2]: -0.03224
FAD [2]: -0.02095
GMP [2]: -0.2572
NAD+ [2]: -0.1627
NADP+ [2]: 0.3266
Octoluse Bisphosphate [2]: -0.105
Pyroglutamic acid [2]: -0.3472
UDP-D-glucose [2]: -0.06298
UDP-D-glucuronate [2]: -0.1533
UDP-N-acetyl-glucosamine [2]: -0.07606
UDP [2]: 0.1622
UMP [2]: -0.1529
UTP [2]: 0.06952
a-ketoglutarate [2]: -0.5075
citrate/isocitrate [2]: -0.2451
cytidine [2]: -0.2174
dATP [2]: 0.09204
dGMP/AMP [2]: -0.1732
fumarate [2]: 0.04552
glucose-1/6-phosphate [2]: -0.4595
glycerate [2]: -0.9564
guanine [2]: 0.005054
guanosine [2]: -0.4079
hypoxanthine [2]: -0.5072
indole [2]: -0.3067
inosine [2]: -0.6058
2_3-Diphosphoglyceric acid [2]: 0.03945
4-phosphopantothenate [2]: -0.1337
6-phospho-D-gluconate [2]: 0.01561
FMN [2]: -0.3847
IMP [2]: -0.1057
Pyrophosphate [2]: 0.1028
Sedoheptoluse bisphosphate [2]: -0.05677
cyclic-AMP [2]: -0.3139
glutathione disulfide [2]: -0.02692
lactate [2]: -0.5186
myo-inositol [2]: -0.8275
nicotinate [2]: -0.004192
ornithine [2]: -0.09669
phosphoenolpyruvate [2]: -0.129
pyruvate [2]: -0.7877
ribose-phosphate [2]: -0.2371
sarcosine/alanine [2]: 0.03174
sn-glycerol-3-phosphate [2]: -0.01243
succinate/methylmalonic acid [2]: -0.2869
uridine [2]: -0.8523
xanthosine [2]: -0.9083
EC50 [3]: 235 nM

CCN(CC)CCNc1ccnc2cc(Cl)ccc12 [MMV006087]
fold change (IC50normal/ IC50hypoxia) [1]: 2.2
fold change (IC50reduced/IC50normal) [1]: 2.0
IC50 [1, 4]: 18 nM
IC50 [1, 5]: 40 nM
IC50 [1, 6]: 46 nM
IC50 [1, 7]: 94 nM
Acetyllysine [2]: -0.6709
N-acetyl-L-ornithine [2]: -0.3158
N-carbamoyl-L-aspartate [2]: 0.2408
NADPH [2]: 1.332
dAMP [2]: 1.732
dCMP [2]: 0.4187
dTDP [2]: 0.1999
dTMP [2]: 1.797
dTTP [2]: -0.4289
dihydroorotate [2]: 0.1541
orotate [2]: -0.4098
DLH [2]: -1.609
DLS/SDL/SID [2]: -1.645
PD [2]: -0.5241
PEE [2]: 0.8188
PVNF [2]: -2.104
3-phosphoglycerate [2]: -0.1063
ADP-D-glucose [2]: 0.134
ATP [2]: -0.2173
CDP [2]: 0.2969
D-sedoheptulose-1/7-phosphate [2]: -0.3976
FAD [2]: -0.08711
GMP [2]: 0.04645
NAD+ [2]: -0.09966
NADP+ [2]: 0.09641
Octoluse Bisphosphate [2]: 0.7357
Pyroglutamic acid [2]: -0.2816
UDP-D-glucose [2]: -0.03029
UDP-D-glucuronate [2]: -0.03795
UDP-N-acetyl-glucosamine [2]: -0.1287
UDP [2]: -0.01186
UMP [2]: -0.1675
UTP [2]: -0.4234
a-ketoglutarate [2]: -1.012
citrate/isocitrate [2]: -0.5672
cytidine [2]: 0.4735
dATP [2]: -0.2015
dGMP/AMP [2]: 1.373
fumarate [2]: -0.3281
glucose-1/6-phosphate [2]: -0.3642
glycerate [2]: -1.245
guanine [2]: -0.2729
guanosine [2]: -1.735
hypoxanthine [2]: 0.3732
indole [2]: 0.02177
inosine [2]: -0.5366
2_3-Diphosphoglyceric acid [2]: -0.3682
4-phosphopantothenate [2]: -0.474
6-phospho-D-gluconate [2]: -0.3619
FMN [2]: 0.01066
IMP [2]: -0.05089
Pyrophosphate [2]: -0.2464
Sedoheptoluse bisphosphate [2]: 1.503
cyclic-AMP [2]: -0.4094
glutathione disulfide [2]: -0.5661
lactate [2]: -0.8938
myo-inositol [2]: -1.322
nicotinate [2]: -1.055
ornithine [2]: 0.317
phosphoenolpyruvate [2]: -0.3268
pyruvate [2]: -1.42
ribose-phosphate [2]: -0.4165
sarcosine/alanine [2]: -0.8094
sn-glycerol-3-phosphate [2]: -0.2401
succinate/methylmalonic acid [2]: -0.2149
uridine [2]: -1.004
xanthosine [2]: -1.365
EC50 [3]: 58.1 nM
